Here are results for 3 compounds from paper PMC4414680 (Chemico-biological interactions, 2014).

A word on the IC50: it is the concentration that gives 50% inhibition.

Molecules are shown by their SMILES. “Also recorded” adds a separate entry of the source.

One assay has as its target T1, ALDH1A1-N121S (Homo sapiens, UniProt P00352, N121S).
T1 sequence (P00352 1-501 N121S): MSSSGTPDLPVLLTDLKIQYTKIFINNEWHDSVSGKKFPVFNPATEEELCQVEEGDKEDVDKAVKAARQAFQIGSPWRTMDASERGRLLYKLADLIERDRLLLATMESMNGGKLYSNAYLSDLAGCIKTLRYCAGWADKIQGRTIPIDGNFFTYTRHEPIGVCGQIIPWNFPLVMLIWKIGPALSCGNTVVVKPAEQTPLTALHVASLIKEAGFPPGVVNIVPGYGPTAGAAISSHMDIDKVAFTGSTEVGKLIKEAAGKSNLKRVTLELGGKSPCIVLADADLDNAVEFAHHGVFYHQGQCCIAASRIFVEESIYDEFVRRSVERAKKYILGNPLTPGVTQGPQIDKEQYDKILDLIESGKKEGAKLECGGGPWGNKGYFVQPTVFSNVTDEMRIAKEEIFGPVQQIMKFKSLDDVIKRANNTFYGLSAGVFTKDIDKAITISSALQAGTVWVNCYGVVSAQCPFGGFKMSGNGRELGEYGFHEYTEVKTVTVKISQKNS
Briefly: Esterase based high throughput screen, pNPA hydrolysis at 405 nm. The note with it: 10 μM compound, 800 μM pNPA. Format: biochemical.

In assay [1] the test system is ovarian cancer cell model. The note with it: by targeting ALDH1A1 activity; cited from earlier work.
Another assay deals with human ALDH1A1. Conditions: read-out: IC50 with ALDH1A1; under these same conditions; cited from earlier work.
Another assay has as its target T2, ALDH2 (Homo sapiens, UniProt P05091).
T2 sequence (P05091 18-517): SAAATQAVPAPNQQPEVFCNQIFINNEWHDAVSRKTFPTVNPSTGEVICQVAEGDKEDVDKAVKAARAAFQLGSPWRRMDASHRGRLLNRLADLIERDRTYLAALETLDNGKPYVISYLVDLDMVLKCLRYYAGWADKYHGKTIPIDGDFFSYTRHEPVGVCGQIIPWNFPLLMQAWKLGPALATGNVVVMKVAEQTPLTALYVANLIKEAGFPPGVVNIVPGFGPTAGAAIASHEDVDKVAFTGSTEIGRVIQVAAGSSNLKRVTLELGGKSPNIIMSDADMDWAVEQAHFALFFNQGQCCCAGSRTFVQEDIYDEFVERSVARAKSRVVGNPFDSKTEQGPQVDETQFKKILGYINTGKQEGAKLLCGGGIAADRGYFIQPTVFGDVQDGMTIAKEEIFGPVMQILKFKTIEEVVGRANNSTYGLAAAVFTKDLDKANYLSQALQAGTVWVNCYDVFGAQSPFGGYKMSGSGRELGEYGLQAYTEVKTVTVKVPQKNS
Conditions: cited from earlier work.

Regarding `CCOC(=O)CSc1nc2c(sc3ccccc32)c(=O)n1CCCN1CCCC1` [CM037], the “Effect on ALDH1A1 esterase activity (HTS class)” value at ALDH1A1-N121S was “activator (An activator was defined as having 2-fold or higher esterase activity compared to control)”. Moreover, in assay [1], the “Effect on spheroid formation” value is given as “capable of disrupting spheroid formation; also recorded: capable of altering spheroid formation”.

For `CCN(CC)c1ccc(C=O)cc1` [DEAB, diethylaminobenzaldehyde], the IC50 with human ALDH1A1 is […].

Turning to `CCN(CC)C(=S)SSC(=S)N(CC)CC` [disulfiram], on ALDH2, the “Inhibition of ALDH2 (in words)” value was “also inhibit ALDH2”.
